In patent US10669242B2 (priority 2016, dated 2020):
Structures can show the parent of a compound that is named as a salt.

The compounds below were run against T1, recombinant glucosyltransferase domain of C. difficile Toxin B/TcdB (Clostridioides difficile, UniProt P18177) (assay: biochemical).
T1 construct: 6-His (C); purchased R&D Systems 6246-GT
T1 sequence (P18177 1-543): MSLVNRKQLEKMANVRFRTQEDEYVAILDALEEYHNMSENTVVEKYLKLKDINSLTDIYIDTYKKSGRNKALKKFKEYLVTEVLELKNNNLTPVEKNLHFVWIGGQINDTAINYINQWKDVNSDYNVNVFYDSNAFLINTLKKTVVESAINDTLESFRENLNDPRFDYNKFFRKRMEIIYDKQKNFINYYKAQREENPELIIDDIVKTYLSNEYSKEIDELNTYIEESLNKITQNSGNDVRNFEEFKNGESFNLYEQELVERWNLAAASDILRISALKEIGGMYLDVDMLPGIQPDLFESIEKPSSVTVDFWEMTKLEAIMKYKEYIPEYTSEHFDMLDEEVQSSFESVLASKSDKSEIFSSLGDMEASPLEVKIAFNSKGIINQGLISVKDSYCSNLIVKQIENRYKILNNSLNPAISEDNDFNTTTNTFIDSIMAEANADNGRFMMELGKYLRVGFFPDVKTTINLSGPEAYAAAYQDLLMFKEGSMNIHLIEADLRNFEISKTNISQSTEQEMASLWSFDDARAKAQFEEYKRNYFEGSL
With `O=C(Nc1ccc(N2CCOCC2)cn1)c1ccc(CN2C(=O)c3ccc(Cl)cc3NC(=O)[C@H]2Cc2ccccn2)cc1` [Example 4av, (R)-4-((8-chloro-2,5-dioxo-3-(pyridin-2-ylmethyl)-2,3-dihydro-1H-benzo[e][1,4]diazepin-4(5H)-yl)methyl)-N-(5-morpholinopyridin-2-yl)benzamide] the IC50 was < 100 nM.
In the case of `O=C(Nc1ccccn1)c1ccc(CN2C(=O)c3ccc(Cl)cc3NC(=O)[C@H]2Cc2ccccn2)cc1` [Example 4v, (R)-4-((8-chloro-2,5-dioxo-3-(pyridin-2-ylmethyl)-2,3-dihydro-1H-benzo[e][1,4]diazepin-4(5H)-yl)methyl)-N-(pyridin-2-yl)benzamide], the IC50 is reported as < 100 nM.
Work on `O=C1Nc2cc(Cl)ccc2C(=O)N(Cc2ccc(C(O)c3ccccn3)cc2)[C@@H]1Cc1ccccn1` (stereo partly drawn) [Example 51a, (3R)-8-Chloro-4-(4-(hydroxy(pyridin-2-yl)methyl)benzyl)-3-(pyridin-2-ylmethyl)-3,4-dihydro-1H-benzo[e][1,4]diazepine-2,5-dione] yielded an IC50 of 1000 to 10000 nM.
In the case of `O=C(Nc1ccccn1)c1ccc(CN2C(=O)c3ccc(Cl)cc3NC(=O)[C@@H]2Cc2ccccn2)cc1` [Example 4aq, (S)-4-((8-chloro-2,5-dioxo-3-(pyridin-2-ylmethyl)-2,3-dihydro-1H-benzo[e][1,4]diazepin-4(5H)-yl)methyl)-N-(pyridin-2-yl)benzamide], the IC50 is reported as < 100 nM.
Work on `O=C(Nc1ccccn1)c1ccc(CN2C(=O)c3cccc(Cl)c3NC(=O)[C@H]2Cc2cccnc2)cc1` [Example 35i] yielded an IC50 of 1000 to 10000 nM.
In the case of `Cc1cnc(NC(=O)[C@H]2CC[C@H](CN3C(=O)c4ccc(Cl)cc4NC(=O)[C@H]3Cc3ccccn3)CC2)nc1` [Example 5ad, (1R,4r)-4-(((R)-8-chloro-2,5-dioxo-3-(pyridin-2-ylmethyl)-2,3-dihydro-1H-benzo[e][1,4]diazepin-4(5H)-yl)methyl)-N-(5-methylpyrimidin-2-yl)cyclohexanecarboxamide], the IC50 is reported as < 100 nM.
For `O=C(Nc1ccccn1)c1ccc(CN2C(=O)c3ccc([N+](=O)[O-])cc3NC(=O)[C@H]2Cc2ccc(Cl)c(Cl)c2)cc1` [Example 4ae, (R)-4-((3-(3,4-dichlorobenzyl)-8-nitro-2,5-dioxo-2,3-dihydro-1H-benzo[e][1,4]diazepin-4(5H)-yl)methyl)-N-(pyridin-2-yl)benzamide], the IC50 was 100 to 999 nM.
`COc1cccc(-c2cc(CN3C(=O)c4ccc(Cl)cc4NC(=O)[C@H]3Cc3ccccn3)ccc2C(=O)O)c1` [Example 8b, (R)-5-((8-chloro-2,5-dioxo-3-(pyridin-2-ylmethyl)-2,3-dihydro-1H-benzo[e][1,4]diazepin-4(5H)-yl)methyl)-3′-methoxy-[1,1′-biphenyl]-2-carboxylic acid] showed an IC50 of 100 to 999 nM.
With `COc1ccc(S(=O)(=O)NC(=O)c2ccc(CN3C(=O)c4ccc(Cl)cc4NC(=O)[C@H]3Cc3cccnc3)cc2)cc1` [Example 15d, (R)-4-((8-chloro-2,5-dioxo-3-(pyridin-3-ylmethyl)-2,3-dihydro-1H-benzo[e][1,4]diazepin-4(5H)-yl)methyl)-N-((4-methoxyphenyl)sulfonyl)benzamide] the IC50 was 1000 to 10000 nM.
With `O=C(Nc1ccccn1)c1ccc(CN2C(=O)c3ccc(Cl)cc3NC(=O)[C@H]2Cc2ccccc2)cc1` [Example 4h, (R)-4-((3-benzyl-8-chloro-2,5-dioxo-2,3-dihydro-1H-benzo[e][1,4]diazepin-4(5H)-yl)methyl)-N-(pyridin-2-yl)benzamide] the IC50 was < 100 nM.
Compound `O=C(CO)Nc1cc(CN2C(=O)c3ccc(Cl)cc3NC(=O)[C@H]2Cc2ccccn2)ccc1C(=O)O` [Example 22o] has an IC50 of 100 to 999 nM.
In the case of `CCc1ccc(NC(=O)c2ccc(CN3C(=O)c4ccc(Cl)cc4NC(=O)[C@H]3Cc3ccccn3)cc2)nc1` [Example 4ap, (R)-4-((8-chloro-2,5-dioxo-3-(pyridin-2-ylmethyl)-2,3-dihydro-1H-benzo[e][1,4]diazepin-4(5H)-yl)methyl)-N-(5-ethylpyridin-2-yl)benzamide], the IC50 is reported as < 100 nM.
For `O=C1Nc2cc(Cl)ccc2C(=O)N(CC2CCN(C(=O)Nc3ccccn3)CC2)[C@@H]1Cc1ccccn1` [Example 42a, (R)-4-((8-Chloro-2,5-dioxo-3-(pyridin-2-ylmethyl)-2,3-dihydro-1H-benzo[e][1,4]diazepin-4(5H)-yl)methyl)-N-(pyridin-2-yl)piperidine-1-carboxamide], the IC50 was 1000 to 10000 nM.
`O=C1Nc2cc(Cl)ccc2C(=O)N(Cc2ccc3c(c2)CCN(c2ccccn2)C3=O)[C@@H]1Cc1ccccn1` [Example 37a, (R)-8-Chloro-4-((1-oxo-2-(pyridin-2-yl)-1,2,3,4-tetrahydroisoquinolin-6-yl)methyl)-3-(pyridin-2-ylmethyl)-3,4-dihydro-1H-benzo[e][1,4]diazepine-2,5-dione] showed an IC50 of 1000 to 10000 nM.
In the case of `Cc1cc(CN2C(=O)c3ccc(Cl)cc3NC(=O)[C@H]2Cc2ccccn2)ccc1C(=O)Nc1ccc(C#N)cn1` [Example 5at, (R)-4-((8-chloro-2,5-dioxo-3-(pyridin-2-ylmethyl)-2,3-dihydro-1H-benzo[e][1,4]diazepin-4(5H)-yl)methyl)-N-(5-cyanopyridin-2-yl)-2-methylbenzamide], the IC50 is reported as < 100 nM.
Work on `O=C(O)c1ccc(CN2C(=O)c3ccc(Cl)cc3NC(=O)C2Cc2cnccn2)cc1` (stereo not drawn) [Example 1l] yielded an IC50 of 1000 to 10000 nM.
For `O=C(Nc1ccccn1)c1ccc(S(=O)(=O)N2Cc3ccc(Cl)cc3NC(=O)[C@H]2Cc2ccccn2)cc1` [Example 19b, (R)-4-((8-chloro-2-oxo-3-(pyridin-2-ylmethyl)-2,3-dihydro-1H-benzo[e][1,4]diazepin-4(5H)-yl)sulfonyl)-N-(pyridin-2-yl)benzamide], the IC50 was < 100 nM.
Work on `O=C(O)c1c(Cl)cc(CN2C(=O)c3ccc(Cl)cc3NC(=O)[C@H]2Cc2ccccn2)cc1Cl` [Example 7c, (R)-2,6-dichloro-4-((8-chloro-2,5-dioxo-3-(pyridin-2-ylmethyl)-2,3-dihydro-1H-benzo[e][1,4]diazepin-4(5H)-yl)methyl)benzoic acid] yielded an IC50 of 1000 to 10000 nM.
For `O=C(Nc1ccc(N2CCNCC2)cn1)c1ccc(CN2C(=O)c3ccc(Cl)cc3NC(=O)[C@H]2Cc2ccccn2)cc1` [Example 48a, (R)-4-((8-Chloro-2,5-dioxo-3-(pyridin-2-ylmethyl)-2,3-dihydro-1H-benzo[e][1,4]diazepin-4(5H)-yl)methyl)-N-(5-(piperazin-1-yl)pyridin-2-yl)benzamide hydrochloride], the IC50 was < 100 nM.
For `Cc1nnc(NC(=O)c2ccc(CN3C(=O)c4ccc(Cl)cc4NC(=O)[C@H]3Cc3ccccn3)cc2)[nH]1` [Example 4bj, (R)-4-((8-chloro-2,5-dioxo-3-(pyridin-2-ylmethyl)-2,3-dihydro-1H-benzo[e][1,4]diazepin-4(5H)-yl)methyl)-N-(5-methyl-4H-1,2,4-triazol-3-yl)benzamide], the IC50 was 1000 to 10000 nM.
In the case of `CC1(C)CN(C(=O)c2ccc(CN3C(=O)c4ccc(Cl)cc4NC(=O)[C@H]3Cc3ccccn3)cc2Cl)c2ncccc21` [Example 4as, (R)-8-chloro-4-(3-chloro-4-(3,3-dimethyl-2,3-dihydro-1H-pyrrolo[2,3-b]pyridine-1-carbonyl)benzyl)-3-(pyridin-2-ylmethyl)-3,4-dihydro-1H-benzo[e][1,4]diazepine-2,5-dione], the IC50 is reported as < 100 nM.
